Laboratory results: article PMC4555001 (Bioorganic & medicinal chemistry, 2015)
“Also recorded” adds a separate entry of the source.

Assays:
ETA receptors [1] = assay: Inhibition of ET-1 induced vasoconstriction in the gerbil spiral modiolar artery; conditions: agonist 1 nM ET-1; antagonist 0.1-1 μM; competitive inhibition assumed
ETA receptors [2] = conditions: ref [25], cited from earlier work
ETA receptor [3] = conditions: rat cardiac membranes; ref [6]-[9]; cited from earlier work
ETA receptor [4] = conditions: read-out: Ki, ET-1 induced contraction of rat aortic strips; ref [6]-[9]; cited from earlier work
[5] = system: voltage-gated Na^+ currents (TTX-sensitive); assay: Patch clamp recording of voltage-gated Na+ currents in mouse DRG neurons; assay type: cell-based
[6] = system: voltage-gated K^+ currents; assay: Patch clamp recording of voltage-gated K+ currents in mouse DRG neurons; assay type: cell-based
[7] = system: voltage-gated Ca^2+ currents (LVA, principally Cav3.2 T-type; HVA, mainly L-type); assay: Patch clamp recording of voltage-gated Ca2+ currents in mouse DRG neurons; assay type: cell-based

CC1(C)C(=O)CC[C@]2(C)[C@H]3CC[C@@H]4CCC(=O)C[C@@]4(C#N)[C@]3(C)CC[C@@H]12 [(+)-2, (+)-(4aS,4bR,6aR,10aR,10bR,12aR)-4b,7,7,10a-Tetramethyl-3,8-dioxo-octadecahydrochrysene-4a-carbonitrile]
A2 (putative affinity value) (ETA receptors [1]): 134 nM

Endothelin-1 [ET-1]
Emax, normalized maximal vasoconstriction (ETA receptors [2]; normalized to 10 mM Ca2+ vasoconstriction): 140%
EC50 (ETA receptors [2]; read-out: EC50 of vasoconstriction, gerbil spiral modiolar artery): 0.74 nM

CC1(C)CC[C@]2(C(=O)O)CC[C@]3(COC(=O)/C=C/c4ccc(O)c(O)c4)C(=CC[C@@H]4[C@@]5(C)CCC(=O)C(C)(C)[C@@H]5CC[C@]43C)[C@@H]2C1 [(+)-myriceric acid A, myriceric acid A]
Effect on specific binding of [125I]endothelin-1 (ETA receptor [3]): antagonizes specific binding
Ki (ETA receptor [4]): 66 ± 15 nM
A2 (putative affinity value) (ETA receptors [1]): 85 nM

CC1(C)C(=O)CC[C@]2(C)[C@H]3CCc4ccc(OCCO)cc4[C@]3(C)CC[C@@H]12 [(-)-6, (-)-(4aR,10bR)-9-(2-Hydroxyethoxy)-1,1,4a,10b-tetramethyl-4,4a,5,6,10b,11,12,12a-octahydro-(1 H,3H,4bH)-chrysen-2-one]
A2 (putative affinity value) (ETA receptors [1]): 318 nM

CC1(C)C(=O)CC[C@]2(C)[C@H]3CC[C@@H]4CCC(=O)C=C4[C@]3(C)CC[C@@H]12 [(+)-1, (+)-(4aR,10bR)-1,1,4a,10b-Tetramethyl-4,4a,4b,5,6,6a,7,8,10b,11,12,12a-dodecahydro-chrysene-2,9(1H,3H)-dione]
A2 (putative affinity value) (ETA receptors [1]): 193 nM

CC1(C)[C@@H]2CC[C@]3(C)[C@H](CC[C@@H]4CC=C(O[Si](C)(C)C(C)(C)C)C[C@]43C=N)[C@@]2(C)CCC12OCCO2 [(-)-3, (-)-{(4aR,4bR,6aR,10a S,10bR,12aR)-9-(tert-Butyldimethylsilyloxy)-1,1,4a,10b-tetramethyl-3,4,4a,4b,5,6,6a,7,10,10a,10b,11,12,12a-tetradecahydro-1H-spiro[chrysene-2,2′-[1,3]dioxolane]-10a-yl}methanimin]
Inhibition of Na+ currents ([5]; 0.3 μM (as stated in conclusions)): little inhibitions
Inhibition of Na+ currents ([5]; 3 μM): non-specific inhibition
Inhibition of Na+ currents ([5]; 0.1 - 0.3 μM, depolarizing to 0 mV for 20 ms): little inhibition; also recorded: little inhibitory effect
Inhibition of K+ currents ([6]; 3 μM): non-specific inhibition
Inhibition of K+ currents ([6]; 0.1 - 0.3 μM, depolarizing to 70 mV for 300 ms): little inhibition; also recorded: little inhibitory effect
Inhibition of Ca2+ currents ([7]; 3 μM): completely block; also recorded: non-specific inhibition
Inhibition of Ca2+ currents ([7]; 0.1 and 0.3 μM, step to -10 mV from Vh -90 mV): substantially inhibited
Inhibition of LVA- and HVA-Ca2+ currents ([7]; bath application 0.1 - 3 μM): concentration-dependent inhibition; also recorded: concentration-dependent blockage
A2 (putative affinity value) (ETA receptors [1]): 93 nM

CC1(C)[C@@H]2CC[C@]3(C)[C@H](CC[C@@H]4CC[C@@]5(O)C[C@]43C=N5)[C@@]2(C)CCC12OCCO2 [(-)-4, (-)-Spiro-(10a, 9)-{(4aR,4bR,6aR,10aS,10bR,12aR)-1,1,4a,10b-tetramethyl-3,4,4a,4b,5,6,6a,7,10,10a,10b,11,12,12a-tetradecahydro-1H-spiro[chrysene-2,2′-[1,3]dioxolane]-10a-yl}methyl-hemiaminal]
A2 (putative affinity value) (ETA receptors [1]): 301 nM

CC1(C)C(=O)CC[C@]2(C)[C@H]3CCc4ccc(O)cc4[C@]3(C)CC[C@@H]12 [(-)-5, (-)-(4aR,4bR,10bR)-9-Hydroxy-1,1,4a,10b-tetramethyl-3,4,4a,4b,5,6,10b,11,12,12a-decahydrochrysen-2(1H)-one]
A2 (putative affinity value) (ETA receptors [1]): 205 nM
